Measurements as given in US11701333B2, “Antibacterial compounds” (KENT INNOVATION & ENTERPRISE, priority 2017, dated 2023).
≈ marks a conversion by molar mass, not a printed value.

Columns and labels:
Type in all cases: cell-based
[1] = system: S. aureus; test: drop test activity screening; further: key: Y = antibacterial activity; N = No antibacterial activity
Excerpt: (§1) The ability of each of the compounds of the invention to impact bacterial growth and viability has been tested. This has been undertaken using a novel drop-test method for initial activity screening, as well as using conventional growth curve analysis methodology. This novel class of antimicrobial agent has shown bactericidal activity against Gram +ve (e.g. S. aureus, Bacillus megaterium) and bacteriostatic activity against Gram −ve isolates (e.g. E. coli).
(§2) The compounds were screened initially by drop testing methods and then by growth rate methods as it was identified that drop testing methods could give false negatives.

[2] = system: E. coli; test: drop test activity screening; further: key: Y = antibacterial activity; N = No antibacterial activity
Excerpt: as §1, §2

[3] = system: S. aureus; test: growth rate (growth curve) activity screening; settings: for Grow Rates activity S. aureus Log: log phase bacterial growth; for Grow Rates activity S. aureus: phase not given
Excerpt: as §1, §2

[4] = system: S. aureus; test: Calculated MIC50 and MIC100 values; settings: for MIC50 Staph Log / MIC100 Staph Log: log phase; for MIC50 Staph Stat / MIC100 Staph Stat: stationary phase
Excerpt: (§3) The present inventors have determined MIC50 values, in the nM-μM range, for lead compounds, against clinical S. aureus isolates (e.g. MRSA) and E. coli in both log and stationary phases.

[5] = system: E. coli; test: growth rate (growth curve) activity screening; settings: first E. coli growth column, phase not given
Excerpt: as §1, §2

[6] = system: E. coli; test: Calculated MIC50 and MIC100 values
Excerpt: as §3

Row | Compound | drop test activity S. aureus [1] | drop test activity E. coli [2] | Grow Rates activity S. aureus Log [3] | other results
1 | Nc1ccc(NC(=O)NCS(=O)(=O)O)cc1 [Compound 74] | N | N | Y | 
2 | O=C(NCS(=O)(=O)O)Nc1ccc(C(F)(F)F)cc1 [Compound 34] | Y | N | Y | MIC50 Staph Log [4]: 146.6192 μg/mL; Grow Rates activity E. coli [5]: Y
3 | Cc1ccc2nc(NC(=O)NCS(=O)(=O)O)sc2c1 [Compound 72] | N | N | N | Grow Rates activity S. aureus [3]: Y
4 | O=C(NCS(=O)(=O)O)Nc1ccc2cc3ccccc3cc2c1 [Compound 52] | N | N | Y | MIC50 Staph Log [4]: 330.0044 μg/mL; Grow Rates activity E. coli [5]: Y
5 | O=C(NCS(=O)(=O)O)Nc1cccc2ccccc12 [Compound 45] | N | N |  | 
6 | O=C(NCS(=O)(=O)O)Nc1ccc(C(F)(F)F)cc1 [Compound 37] | Y | N | Y | MIC50 Staph Log [4]: 29.08 μg/mL; MIC100 Staph Log [4]: 30.35 μg/mL; MIC50 Staph Stat [4]: 464.1399 µg/mL (≈ 1560 µM); MIC100 Staph Stat [4]: 559.1301 µg/mL (≈ 1870 µM); MIC50 ([6]; Escherichia coli, stationary phase, read-out: MIC50 Coli Stat): 451 µg/mL (≈ 1510 µM); MIC ([6]; Escherichia coli, stationary phase, read-out: MIC100 Coli Stat): 480 µg/mL (≈ 1610 µM); MIC50 Coli Log ([6]; log phase): 236.9979 μg/mL; MIC100 Coli Log ([6]; log phase): 505.6726 μg/mL
7 | O=C(NCCS(=O)(=O)O)Nc1ccc(C(F)(F)F)cc1 [Compound 3] | N | N |  | 
8 | CCCCNC(=O)NCCCS(=O)(=O)O [Compound 50, reference compound] | N | N |  | 
9 | O=C(NCS(=O)(=O)O)Nc1ccccc1-c1nc2ccccc2s1 [Compound 54] | N | N |  | 
10 | O=C(NCS(=O)(=O)O)Nc1ccc(C(F)(F)F)cc1 [Compound 32] | Y | N | Y | MIC50 Staph Log [4]: 19.14 μg/mL; MIC100 Staph Log [4]: 20.08 μg/mL; MIC50 Staph Stat [4]: 39.4 µg/mL (≈ 132 µM); MIC100 Staph Stat [4]: 57 µg/mL (≈ 191 µM)
11 | O=C(NCS(=O)(=O)O)Nc1cc(C(F)(F)F)cc(C(F)(F)F)c1 [Compound 44] | Y | N |  | 
12 | CCCCNC(=S)NCS(=O)(=O)O [Compound 47, reference compound] | N | N |  | 
13 | O=C(NCS(=O)(=O)O)Nc1nc2ccccc2s1 [Compound 71] | N | N | Y | Grow Rates activity S. aureus [3]: N
14 | O=S(=O)(O)CNC(=S)Nc1cc(C(F)(F)F)cc(C(F)(F)F)c1 [Compound 43] | Y | N | Y | Grow Rates activity E. coli [5]: Y
15 | CCCCNC(=S)NCCCS(=O)(=O)O [Compound 51, reference compound] | N | N |  | 
16 | O=C(NCCCS(=O)(=O)O)Nc1ccc(C(F)(F)F)cc1 [Compound 5] | N | N |  | 
17 | O=S(=O)(O)CCCNC(=S)Nc1ccc(C(F)(F)F)cc1 [Compound 6] | Y | N |  | 
18 | O=C(NCS(=O)(=O)O)Nc1ccc(C(F)(F)F)cc1 [Compound 33] | Y | N | Y | MIC50 Staph Log [4]: 0.45 μg/mL; MIC100 Staph Log [4]: 2.971 μg/mL; MIC50 Staph Stat [4]: 5.579 µg/mL (≈ 18.7 µM); MIC100 Staph Stat [4]: 7.304 µg/mL (≈ 24.5 µM)

Row | Compound | drop test activity S. aureus [1] | drop test activity E. coli [2] | Grow Rates activity S. aureus Log [3] | other results
19 | O=C(NCS(=O)(=O)O)Nc1c(F)c(F)c(F)c(F)c1F [Compound 65] | N | N |  | 
20 | O=C(NCS(=O)(=O)[O-])Nc1ccc(C(F)(F)F)cc1.[K+] [Compound 42] | N | N |  | 
21 | O=S(=O)(O)CNC(=S)Nc1ccc(C(F)(F)F)cc1 [Compound 61] | N | N | Y | 
22 | O=C(NCS(=O)(=O)O)Nc1ccc(C(F)(F)F)cc1 [Compound 31] | Y | N | Y | MIC50 Staph Log [4]: 21.6 μg/mL; MIC100 Staph Log [4]: 22.68 μg/mL; MIC50 Staph Stat [4]: 14.79 µg/mL (≈ 49.6 µM); MIC100 Staph Stat [4]: 14.84 µg/mL (≈ 49.8 µM)
23 | O=C(NCS(=O)(=O)O)Nc1ccc([N+](=O)[O-])cc1 [Compound 38] | Y | N | Y | Grow Rates activity E. coli [5]: Y
24 | O=S(=O)(O)CNC(=S)Nc1ccc(C(F)(F)F)cc1 [Compound 2] | Y | N | Y | MIC50 Staph Log [4]: 54.13 μg/mL; MIC100 Staph Log [4]: 93.55 μg/mL; Grow Rates activity E. coli [5]: Y
25 | Cc1ccc2sc(-c3ccc(NC(=O)NCS(=O)(=O)O)cc3)nc2c1 [Compound 53] | Y | N | Y | MIC50 Staph Log [4]: 21.11 μg/mL; Grow Rates activity E. coli [5]: Y
26 | CCCCNC(=O)NCCS(=O)(=O)O [Compound 48, reference compound] | N | N |  | 
27 | O=C(NCS(=O)(=O)O)Nc1ccc(Cc2ccc(NC(=O)NCS(=O)(=O)O)cc2)cc1 [Compound 68] | Y | N | Y | MIC50 Staph Log [4]: 370.0761 μg/mL
28 | CCCCNC(=S)NCCS(=O)(=O)O [Compound 49, reference compound] | N | N |  | 
29 | O=S(=O)(O)CNC(=S)Nc1ccc(C(F)(F)F)cc1 [Compound 63] | N | N |  | 
30 | O=C(NCS(=O)(=O)O)Nc1ccc(C(F)(F)F)cc1 [Compound 1] | Y | N | Y | MIC50 Staph Log [4]: 7.35 μg/mL; MIC100 Staph Log [4]: 29.41 μg/mL; MIC50 Staph Stat [4]: 209.132 µg/mL (≈ 701 µM); MIC100 Staph Stat [4]: 254.5639 µg/mL (≈ 854 µM); MIC50 Coli Stat ([6]; stationary phase): 412.0789 µg/mL (≈ 1380 µM); MIC100 Coli Stat ([6]; stationary phase): 421.0559 µg/mL (≈ 1410 µM); Grow Rates activity S. aureus [3]: Y; Grow Rates activity E. coli [5]: Y
31 | O=C(NCS(=O)(=O)[O-])Nc1ccc(C(F)(F)F)cc1.[Na+] [Compound 41] | Y | N |  | 
32 | O=S(=O)(O)CCNC(=S)Nc1ccc(C(F)(F)F)cc1 [Compound 4] | Y | N |  | 
33 | COc1ccc(NC(=O)NCS(=O)(=O)O)cc1 [Compound 39] | N | N |  | 
34 | O=C(NCS(=O)(=O)O)Nc1ccccc1 [Compound 40] | N | N |  | 
35 | CCCCNC(=O)NCS(=O)(=O)O [Compound 46, reference compound] | N | N |  | 
36 | O=S(=O)(O)CNC(=S)Nc1ccc(C(F)(F)F)cc1 [Compound 62] | N | N | Y | 
